The results in this text go back to ChEMBL document CHEMBL1125213 (J Med Chem, 1991).

SMILES strings stand for the structures.

One may read the Ki as the equilibrium dissociation constant of an inhibitor or competing ligand from its target. Read a high Ki as a looser hold on the target. What is called Inhibition is the percentage by which the read-out fell short of the control. Higher therefore signals a strong effect.

The target of one data set is T1, Adenosine receptor A1 (Rattus norvegicus, UniProt P25099).
T1 sequence (P25099 whole entry): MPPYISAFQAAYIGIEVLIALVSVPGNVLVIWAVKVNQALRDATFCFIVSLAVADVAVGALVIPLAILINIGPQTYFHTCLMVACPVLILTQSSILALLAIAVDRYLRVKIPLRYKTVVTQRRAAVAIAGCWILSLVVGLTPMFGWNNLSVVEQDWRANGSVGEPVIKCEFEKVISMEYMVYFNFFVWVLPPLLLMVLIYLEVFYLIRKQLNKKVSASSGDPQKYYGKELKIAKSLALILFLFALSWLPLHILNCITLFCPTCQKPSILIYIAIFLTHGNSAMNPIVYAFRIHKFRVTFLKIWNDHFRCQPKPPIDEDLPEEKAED
As to the kind of experiment: Binding affinity against adenosine A1 receptor in rat cortex by using [3H]- PIA as a radioligand. The data set is classed as tissue-based.

The target of data set [1] is T2, Adenosine A2 receptor (Rattus norvegicus, UniProt P29276+P30543). Briefly: Binding affinity against adenosine A2 receptor in rat striatum by using [3H]NECA as a radioligand. The data set is classed as tissue-based.
Data set [2] has as its target T2, Adenosine A2 receptor. Briefly: Tested for inhibition of rat PC12 adenylate cyclase stimulation by using NECA as a radioligand. The data set is classed as cell-based. The following applies: pc-12.
For data set [3], the target named is Adenosine receptors; A1 & A2 (Rattus norvegicus) (UniProt P29276+P25099+P30543). Briefly: It is the ratio of Ki value of A1 receptor to that of A2 receptor. The data set is classed as protein assay.
Data set [4] is described as follows: Hydrophobicity index. The data set is classed as ADME.
The target in data set [5] is T3, Adenosine receptor A1 (Rattus norvegicus) (UniProt P25099).
T3 sequence (whole entry): T1 sequence (P25099 whole entry)
The following applies: 100 uM.
Description: Inhibition of [3H]PIA binding to adenosine A1 receptor of rat cortex at 100 uM

On to `CC[C@H](Nc1nc(Cl)nc2c1ncn2C)c1ccccc1`, for which the figures for the Ki at Adenosine receptor A1, on Adenosine A2 receptor [1] and at Adenosine A2 receptor [2] were 2.8 µM, 12 µM and 17 µM, respectively. The Selectivity ratio in data set [3] was 4.3.

`CCn1cnc2c(NC3CCCCC3)ncnc21`: the Ki on Adenosine receptor A1 was found to be 2 µM; at Adenosine A2 receptor [1], 11 µM; on Adenosine A2 receptor [2], 8.5 µM. Also, the Selectivity ratio in data set [3] was found to be 5.5.

In the case of `CC[C@@H](Nc1nc(Cl)nc2c1ncn2C)c1ccccc1`, the values for the Ki on Adenosine receptor A1, at Adenosine A2 receptor [1] and on Adenosine A2 receptor [2] were 3.3 µM, 6.8 µM and 4.3 µM, respectively. The Selectivity ratio in data set [3] stood at 2.1.

As to `Nc1ncnc2c1ncn2CCO`, the Ki at Adenosine receptor A1 is over 100 µM; at Adenosine A2 receptor [1] it was 46 µM; on Adenosine A2 receptor [2], 12 µM. Also, the “k'” value in data set [4] was determined as 0.04. Moreover, the Selectivity ratio in data set [3] is under 0.5. Besides, the Inhibition in data set [5] was determined as 30%.

As for `CC[C@H](Nc1ncnc2c1ncn2C)c1ccccc1.Cl`, the Ki at Adenosine receptor A1 stood at 11 µM; on Adenosine A2 receptor [1], 84 µM; at Adenosine A2 receptor [2], 74 µM. Moreover, the Selectivity ratio in data set [3] amounted to 7.6.

In the case of `Cn1cnc2c(NC3CCCC3)ncnc21`, the Ki at Adenosine A2 receptor [1] was 11 µM; at Adenosine A2 receptor [2] it was 25 µM. Further, the “k'” value in data set [4] is 1.29. Further, in data set [3], the Selectivity ratio amounted to 26.

On to `c1ccc(Nc2ncnc3c2ncn3-c2ccccc2)cc1`, for which the Ki on Adenosine receptor A1 is 6.9 µM; on Adenosine A2 receptor [1], 111 µM; at Adenosine A2 receptor [2] it was 50 µM. Moreover, the Selectivity ratio in data set [3] is 16.

In the case of `CCn1cnc2c(N)ncnc21`, the Ki on Adenosine A2 receptor [1] was determined as 8.8 µM; at Adenosine A2 receptor [2], 5.6 µM. In addition, in data set [4], the “k'” value is given as 0.39. For the same molecule, the Selectivity ratio in data set [3] was found to be 0.19.

Consider `CC[C@H](Nc1ncnc2c1ncn2-c1ccccc1)c1ccccc1`, for which the Ki on Adenosine receptor A1 was 7.2 µM; on Adenosine A2 receptor [1] it was 18 µM; on Adenosine A2 receptor [2] it was 9.9 µM. Further, the Selectivity ratio in data set [3] was 2.5.

As to `Nc1ncnc2c1ncn2C1CCCC1`, the Ki on Adenosine receptor A1 worked out at 1.8 µM; at Adenosine A2 receptor [1] it was 8.2 µM; on Adenosine A2 receptor [2] it was 3.4 µM. The “k'” value in data set [4] was determined as 1.94. Besides, the Selectivity ratio in data set [3] was 4.6.

Regarding `c1ccc(-n2cnc3c(NC4CCCC4)ncnc32)cc1`, the Ki on Adenosine receptor A1 was 8.7 µM; at Adenosine A2 receptor [1], 79 µM; on Adenosine A2 receptor [2], 47 µM. Also, in data set [4], the “k'” value was determined as 3.91. Also, the Selectivity ratio in data set [3] worked out at 9.1.

For the molecule `CC[C@@H](Nc1ncnc2c1ncn2-c1ccccc1)c1ccccc1`, the Ki at Adenosine receptor A1 was found to be 4.7 µM; on Adenosine A2 receptor [1], 15 µM; on Adenosine A2 receptor [2], 11 µM. For the same molecule, the Selectivity ratio in data set [3] turned out to be 3.2.

Take `Nc1ncnc2c1ncn2C1CCCO1` (stereo not given): the values for the Ki at Adenosine A2 receptor [1] and at Adenosine A2 receptor [2] were 23 µM and 2.4 µM, respectively. In data set [4], the “k'” value was 0.21. In addition, the Selectivity ratio in data set [3] is 0.82.

Consider `Cn1cnc2c(Nc3ccccc3)ncnc21`, for which the Ki was found to be 6.9 µM on Adenosine receptor A1, 68 µM on Adenosine A2 receptor [1] and 107 µM at Adenosine A2 receptor [2]. Moreover, the Selectivity ratio in data set [3] was 9.9.

For the molecule `OCCn1cnc2c(NC3CCCC3)ncnc21`, the Ki is 3.3 µM at Adenosine receptor A1, 47 µM on Adenosine A2 receptor [1] and 27 µM on Adenosine A2 receptor [2]. The “k'” value in data set [4] is on record as 0.68. Also, the Selectivity ratio in data set [3] was determined as 14.

In the case of `Cn1cnc2c(Nc3ccccc3)nc(Cl)nc21`, the Ki on Adenosine receptor A1 turned out to be 7 µM; on Adenosine A2 receptor [1], 31 µM; at Adenosine A2 receptor [2], 21 µM. In addition, the Selectivity ratio in data set [3] is 4.4.

Consider `c1nc(NC2CCCC2)c2ncn(C3CCCO3)c2n1` (stereo not given), for which the results for the Ki on Adenosine receptor A1, on Adenosine A2 receptor [1] and on Adenosine A2 receptor [2] were 1.7 µM, 39 µM and 30 µM, respectively. The “k'” value in data set [4] is recorded as 1.81. Also, in data set [3], the Selectivity ratio is 23.

For `c1nc(NC2CCCC2)c2ncn(C3CCCC3)c2n1`, the inhibitory constant (Ki) on Adenosine receptor A1 is 1.2 µM; at Adenosine A2 receptor [1] it was 19 µM; on Adenosine A2 receptor [2] it was 5.1 µM. Further, the “k'” value in data set [4] amounted to 4.99. In data set [3], the Selectivity ratio came to 16.

In the case of `Cn1cnc2c(NC3CCCCC3)ncnc21`, the values for the Ki on Adenosine A2 receptor [1] and at Adenosine A2 receptor [2] were 13 µM and 21 µM, respectively. In addition, the Selectivity ratio in data set [3] was found to be 14.

Consider `Nc1ncnc2c1ncn2-c1ccccc1`, for which the Ki at Adenosine receptor A1 was 19 µM; at Adenosine A2 receptor [1], 38 µM; at Adenosine A2 receptor [2], 74 µM. The “k'” value in data set [4] turned out to be 0.56. Moreover, the Selectivity ratio in data set [3] was 2.

On to `Cn1cnc2c(NC3CCCC3)nc(Cl)nc21`, for which the Ki on Adenosine receptor A1 amounted to 0.53 µM; on Adenosine A2 receptor [1], 9.3 µM; at Adenosine A2 receptor [2] it was 6.3 µM. Also, in data set [4], the “k'” value turned out to be 3.37. For the same molecule, the Selectivity ratio in data set [3] came out at 18.

For the molecule `CC[C@@H](Nc1ncnc2c1ncn2C)c1ccccc1.Cl`, the figures for the Ki on Adenosine receptor A1, on Adenosine A2 receptor [1] and on Adenosine A2 receptor [2] were 2.5 µM, 55 µM and 25 µM, respectively. Also, the Selectivity ratio in data set [3] amounted to 22.

Turning to `Cn1cnc2c(N)ncnc21`, the inhibition constant Ki at Adenosine receptor A1 turned out to be 69 µM; at Adenosine A2 receptor [1], 15 µM; on Adenosine A2 receptor [2], 24 µM. The “k'” value in data set [4] came to 0.11. The Selectivity ratio in data set [3] worked out at 0.22.

Regarding `CCn1cnc2c(NC3CCCC3)ncnc21`, the figures for the Ki at Adenosine A2 receptor [1] and on Adenosine A2 receptor [2] were 17 µM and 10.3 µM, respectively. Moreover, the “k'” value in data set [4] is 1.66. Moreover, the Selectivity ratio in data set [3] was 39.

Take `Cn1cnc2c(N)nc(Cl)nc21`: the results for the Ki at Adenosine receptor A1, on Adenosine A2 receptor [1] and on Adenosine A2 receptor [2] were 23 µM, 11 µM and 16 µM, respectively. Besides, the “k'” value in data set [4] came to 0.22. In addition, the Selectivity ratio in data set [3] came to 0.48.
